The values below come from ChEMBL document CHEMBL5209897, “Affinity Phenotypic Cellular Literature for EUbOPEN Chemogenomics Library wave 3” (2023).

The structures appear in SMILES notation.

The target of experiment [1] is MAP kinase-activated protein kinase 3 (Homo sapiens, UniProt Q16644). Description: Affinity Phenotypic Cellular interaction (Cell-based TNFa assay (MesoScale Discovery; inhibition of LPS stimulated TNFa production in human U937 cells)) EUB0000056c MAPKAPK3. Type of experiment: functional. Details: mode of action Inhibitor, recommended concentration 1 uM.
For experiment [2], the target named is MAP kinase-activated protein kinase 2 (Homo sapiens, UniProt P49137). Description: Affinity Phenotypic Cellular interaction (Cell-based TNFa assay (MesoScale Discovery; inhibition of LPS stimulated TNFa production in human U937 cells)) EUB0000056c MAPKAPK2. Details: mode of action Inhibitor, recommended concentration 1 uM. Type of experiment: functional.
The target of experiment [3] is MAP kinase-activated protein kinase 5 (Homo sapiens, UniProt Q8IW41). Description: Affinity Phenotypic Cellular interaction (Cell-based TNFa assay (MesoScale Discovery; inhibition of LPS stimulated TNFa production in human U937 cells)) EUB0000056c MAPKAPK5. Type of experiment: functional. Also on record: mode of action Inhibitor, recommended concentration 1 uM.
In experiment [4] the target is Phosphatidylinositol 4,5-bisphosphate 3-kinase catalytic subunit gamma isoform (Homo sapiens, UniProt P48736). The experiment can be described thus: Affinity Phenotypic Cellular interaction (Inhibition of pAKT-S473 in T47D breast cancer lines) EUB0000691a PIK3CG. Details: mode of action Inhibitor, recommended concentration 100 nM.
The target of experiment [5] is Histone-lysine N-methyltransferase EHMT1 (Homo sapiens, UniProt Q9H9B1). Description: Affinity Phenotypic Cellular interaction (In-Cell Western assay (H3K9Me2 antibody immunofluorescence in PC3 cells)) EUB0000212b EHMT1/GLP. In kind it is cell-based. Also on record: mode of action Inhibitor, recommended concentration 1 uM.
Experiment [6] deals with Lysine-specific demethylase 6A (Homo sapiens, UniProt O15550). Description: Affinity Phenotypic Cellular interaction (Inhibition of TNF release (in LPS stimulated human macrophages derived from PBMC)) EUB0000217b KDM6A/UTX. Type of experiment: functional. Details: mode of action Pro-drug of GSK-J1, recommended concentration 100 nM.
The target in experiment [7] is T1, Integrin alpha-L (Homo sapiens, UniProt P20701). In kind it is functional, cell-based. Also on record: mode of action Inhibitor, recommended concentration 100 nM.
Experiment [8] concerns the target Serine/threonine-protein kinase PLK1 (Homo sapiens, UniProt P53350). The experiment can be described thus: Affinity Phenotypic Cellular interaction (Immunoblot activity assay (using LAP-Mps1 WT in U2OS cells)) EUB0000608a PLK1. Type of experiment: cell-based. Details: mode of action Inhibitor, recommended concentration 1 uM.
Experiment [9] has as its target Mitogen-activated protein kinase kinase kinase kinase 2 (Homo sapiens, UniProt Q12851). Description: Affinity Phenotypic Cellular interaction (Western Blot (inhibition in IL-1-induced phosphorylation of MAPK14)) EUB0000238b MAP4K2. Also on record: mode of action Inhibitor, recommended concentration 1 uM. Background: A western blot detects proteins with antibodies after separation by electrophoresis.

Experiment [10] addresses NUAK family SNF1-like kinase 1 (Homo sapiens, UniProt O60285). The experiment can be described thus: Affinity Phenotypic Cellular interaction (Western Blot (inhibition of phosphorylation of MYPT1 (myosin […] subunit 1) at Ser445 in HEK293 cells)) EUB0000627a NUAK1. Details: mode of action Inhibitor, recommended concentration 1 uM. Type of experiment: cell-based.

Experiment [11] deals with NUAK family SNF1-like kinase 2 (Homo sapiens, UniProt Q9H093). Description: Affinity Phenotypic Cellular interaction (Western Blot (inhibition of phosphorylation of MYPT1 (myosin […] subunit 1) at Ser445 in HEK293 cells)) EUB0000627a NUAK2. In kind it is cell-based. Also on record: mode of action Inhibitor, recommended concentration 1 uM.
The target in experiment [12] is Hepatocyte growth factor receptor (Homo sapiens) (UniProt P08581). Description: Affinity Phenotypic Cellular interaction (Cell proliferation assay (in Hs746T cells)) EUB0000293b MET. Type of experiment: functional, cell-based. Also on record: recommended concentration 1 uM. The settings on record: Affinity Phenotypic Cellular Source Knowledge https://www.sgc-ffm.uni-frankfurt.de/#!specificprobeoverview/BAY-474.

In experiment [13] the target is Phosphatidylinositol 3-kinase catalytic subunit type 3 (Homo sapiens, UniProt Q8NEB9). The experiment can be described thus: Affinity Phenotypic Cellular interaction (Inhibition of PtdIns(3)P levels (at endosomes probed by suppression of endosomal localization of GFP–2×FYVEHrs; U2OS cells)) EUB0000631a PIK3C3. Type of experiment: functional. Details: mode of action Inhibitor, recommended concentration 1 uM.

Experiment [14] has as its target T1, Integrin alpha-L. In kind it is functional. Details: mode of action Negative control for BI-1950, recommended concentration 100 nM.
The target of experiment [15] is Histone-lysine N-methyltransferase SMYD3 (Homo sapiens, UniProt Q9H7B4). The experiment can be described thus: Affinity Phenotypic Cellular interaction (Immunoblot (inhibition of MAP3K2 methylation in HeLa cells)) EUB0000221b SMYD3. Type of experiment: cell-based. Details: mode of action Peptide-competitive inhibitor, recommended concentration 1 uM.
A short description of experiment [16]: Affinity Phenotypic Cellular interaction (CellTiter-Glo assay (Promega, cell proliferation assay in LNCaP cell line)) EUB0000215b EZH2. (In general: ATP-based viability assays read luminescence as a measure of living cells.)
Experiment [17] deals with Macrophage migration inhibitory factor (Homo sapiens) (UniProt P14174). Description: Affinity Phenotypic Cellular interaction (Cell viability WST-8 assay (measuring inhibition of apoptosis)) EUB0001135a MIF. Type of experiment: functional. Details: recommended concentration 1 uM. The settings on record: Affinity Phenotypic Cellular Source Knowledge 21168764, https://www.sgc-ffm.uni-frankfurt.de/#!specificprobeoverview/BTZO-1. A general note: Tetrazolium dyes change colour on reduction, which living cells bring about.
Chain of Macrophage migration inhibitory factor (Homo sapiens) (P14174 whole entry): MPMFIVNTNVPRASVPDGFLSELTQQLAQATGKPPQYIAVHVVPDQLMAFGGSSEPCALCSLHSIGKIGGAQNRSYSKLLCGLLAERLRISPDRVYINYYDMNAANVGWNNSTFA

T1 sequence (P20701 whole entry): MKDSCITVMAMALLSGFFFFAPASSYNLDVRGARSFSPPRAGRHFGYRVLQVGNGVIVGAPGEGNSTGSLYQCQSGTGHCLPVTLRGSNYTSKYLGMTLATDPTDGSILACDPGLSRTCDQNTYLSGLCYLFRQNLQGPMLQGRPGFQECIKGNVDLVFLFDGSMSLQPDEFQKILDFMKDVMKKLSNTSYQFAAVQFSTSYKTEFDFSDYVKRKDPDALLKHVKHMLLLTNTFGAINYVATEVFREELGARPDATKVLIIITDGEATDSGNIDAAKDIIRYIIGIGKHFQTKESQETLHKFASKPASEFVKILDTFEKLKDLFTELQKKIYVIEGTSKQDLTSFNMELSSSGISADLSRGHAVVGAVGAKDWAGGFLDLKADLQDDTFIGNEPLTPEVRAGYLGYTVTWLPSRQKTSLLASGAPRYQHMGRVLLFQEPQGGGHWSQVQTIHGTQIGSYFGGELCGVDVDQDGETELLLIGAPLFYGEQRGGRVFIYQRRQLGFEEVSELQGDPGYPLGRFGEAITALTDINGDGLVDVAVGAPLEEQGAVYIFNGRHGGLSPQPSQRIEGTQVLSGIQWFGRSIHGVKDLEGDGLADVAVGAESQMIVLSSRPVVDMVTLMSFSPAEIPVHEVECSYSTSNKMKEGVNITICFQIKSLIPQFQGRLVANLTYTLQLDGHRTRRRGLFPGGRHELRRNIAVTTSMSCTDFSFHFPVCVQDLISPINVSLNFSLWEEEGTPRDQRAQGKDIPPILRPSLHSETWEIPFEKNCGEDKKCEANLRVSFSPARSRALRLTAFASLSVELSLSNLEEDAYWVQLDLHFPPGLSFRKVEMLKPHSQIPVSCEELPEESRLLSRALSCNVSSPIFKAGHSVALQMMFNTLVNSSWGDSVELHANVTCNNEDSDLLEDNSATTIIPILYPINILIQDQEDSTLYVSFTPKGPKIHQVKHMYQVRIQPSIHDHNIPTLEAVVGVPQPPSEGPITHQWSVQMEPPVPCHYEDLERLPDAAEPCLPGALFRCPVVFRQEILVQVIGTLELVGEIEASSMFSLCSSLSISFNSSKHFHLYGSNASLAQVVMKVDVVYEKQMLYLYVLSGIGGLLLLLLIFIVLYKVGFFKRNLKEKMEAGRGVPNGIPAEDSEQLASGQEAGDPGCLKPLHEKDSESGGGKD
Chain of Serine/threonine-protein kinase PLK1 (P53350 whole entry): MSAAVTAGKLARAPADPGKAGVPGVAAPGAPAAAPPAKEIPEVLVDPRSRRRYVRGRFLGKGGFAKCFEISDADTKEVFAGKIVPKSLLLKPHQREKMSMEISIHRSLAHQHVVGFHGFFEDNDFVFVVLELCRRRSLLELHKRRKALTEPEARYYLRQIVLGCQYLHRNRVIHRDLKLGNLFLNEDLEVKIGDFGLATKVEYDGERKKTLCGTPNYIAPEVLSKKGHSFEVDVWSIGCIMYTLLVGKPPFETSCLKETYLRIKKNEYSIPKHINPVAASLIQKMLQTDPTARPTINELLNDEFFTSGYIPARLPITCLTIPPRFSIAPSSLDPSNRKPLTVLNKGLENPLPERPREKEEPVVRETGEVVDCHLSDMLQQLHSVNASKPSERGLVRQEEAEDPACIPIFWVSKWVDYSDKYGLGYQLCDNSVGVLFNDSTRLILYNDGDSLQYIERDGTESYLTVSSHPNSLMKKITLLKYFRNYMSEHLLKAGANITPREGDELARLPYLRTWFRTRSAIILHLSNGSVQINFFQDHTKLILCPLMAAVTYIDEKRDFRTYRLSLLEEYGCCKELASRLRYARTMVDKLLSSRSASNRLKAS
Chain of Histone-lysine N-methyltransferase EHMT1 (Q9H9B1 whole entry): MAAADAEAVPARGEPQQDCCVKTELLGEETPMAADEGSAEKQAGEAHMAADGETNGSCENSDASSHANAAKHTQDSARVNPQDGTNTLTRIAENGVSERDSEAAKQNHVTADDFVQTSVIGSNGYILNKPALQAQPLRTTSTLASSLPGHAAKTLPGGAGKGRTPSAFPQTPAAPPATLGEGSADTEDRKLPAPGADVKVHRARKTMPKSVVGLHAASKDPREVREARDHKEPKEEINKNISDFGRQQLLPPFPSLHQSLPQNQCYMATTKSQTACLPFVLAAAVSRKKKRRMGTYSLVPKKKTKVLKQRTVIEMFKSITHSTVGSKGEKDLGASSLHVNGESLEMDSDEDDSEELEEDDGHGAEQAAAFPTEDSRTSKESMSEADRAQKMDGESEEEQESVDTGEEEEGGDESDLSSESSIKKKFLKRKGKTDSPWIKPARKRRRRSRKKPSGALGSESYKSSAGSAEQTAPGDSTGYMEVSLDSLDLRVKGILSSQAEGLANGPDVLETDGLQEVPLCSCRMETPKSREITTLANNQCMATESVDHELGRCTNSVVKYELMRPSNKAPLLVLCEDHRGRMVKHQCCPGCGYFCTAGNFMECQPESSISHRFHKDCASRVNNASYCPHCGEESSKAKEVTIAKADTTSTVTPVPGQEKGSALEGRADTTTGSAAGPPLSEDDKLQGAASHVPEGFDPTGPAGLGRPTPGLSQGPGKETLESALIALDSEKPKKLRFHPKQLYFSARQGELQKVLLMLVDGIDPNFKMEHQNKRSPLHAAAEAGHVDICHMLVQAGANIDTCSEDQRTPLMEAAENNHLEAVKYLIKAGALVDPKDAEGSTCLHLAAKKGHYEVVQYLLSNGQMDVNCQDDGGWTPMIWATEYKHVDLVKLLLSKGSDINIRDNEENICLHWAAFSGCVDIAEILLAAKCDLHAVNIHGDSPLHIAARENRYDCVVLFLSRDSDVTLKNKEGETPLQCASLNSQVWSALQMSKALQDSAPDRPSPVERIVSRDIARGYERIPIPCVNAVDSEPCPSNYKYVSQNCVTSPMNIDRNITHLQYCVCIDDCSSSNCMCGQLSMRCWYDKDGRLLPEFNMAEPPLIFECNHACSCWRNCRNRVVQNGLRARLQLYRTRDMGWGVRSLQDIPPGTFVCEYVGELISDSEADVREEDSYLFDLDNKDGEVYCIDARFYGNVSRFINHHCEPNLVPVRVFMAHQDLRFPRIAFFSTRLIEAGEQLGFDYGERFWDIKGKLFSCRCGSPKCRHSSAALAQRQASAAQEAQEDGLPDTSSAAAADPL
Chain of Phosphatidylinositol 4,5-bisphosphate 3-kinase catalytic subunit gamma isoform (P48736 whole entry, canonical isoform): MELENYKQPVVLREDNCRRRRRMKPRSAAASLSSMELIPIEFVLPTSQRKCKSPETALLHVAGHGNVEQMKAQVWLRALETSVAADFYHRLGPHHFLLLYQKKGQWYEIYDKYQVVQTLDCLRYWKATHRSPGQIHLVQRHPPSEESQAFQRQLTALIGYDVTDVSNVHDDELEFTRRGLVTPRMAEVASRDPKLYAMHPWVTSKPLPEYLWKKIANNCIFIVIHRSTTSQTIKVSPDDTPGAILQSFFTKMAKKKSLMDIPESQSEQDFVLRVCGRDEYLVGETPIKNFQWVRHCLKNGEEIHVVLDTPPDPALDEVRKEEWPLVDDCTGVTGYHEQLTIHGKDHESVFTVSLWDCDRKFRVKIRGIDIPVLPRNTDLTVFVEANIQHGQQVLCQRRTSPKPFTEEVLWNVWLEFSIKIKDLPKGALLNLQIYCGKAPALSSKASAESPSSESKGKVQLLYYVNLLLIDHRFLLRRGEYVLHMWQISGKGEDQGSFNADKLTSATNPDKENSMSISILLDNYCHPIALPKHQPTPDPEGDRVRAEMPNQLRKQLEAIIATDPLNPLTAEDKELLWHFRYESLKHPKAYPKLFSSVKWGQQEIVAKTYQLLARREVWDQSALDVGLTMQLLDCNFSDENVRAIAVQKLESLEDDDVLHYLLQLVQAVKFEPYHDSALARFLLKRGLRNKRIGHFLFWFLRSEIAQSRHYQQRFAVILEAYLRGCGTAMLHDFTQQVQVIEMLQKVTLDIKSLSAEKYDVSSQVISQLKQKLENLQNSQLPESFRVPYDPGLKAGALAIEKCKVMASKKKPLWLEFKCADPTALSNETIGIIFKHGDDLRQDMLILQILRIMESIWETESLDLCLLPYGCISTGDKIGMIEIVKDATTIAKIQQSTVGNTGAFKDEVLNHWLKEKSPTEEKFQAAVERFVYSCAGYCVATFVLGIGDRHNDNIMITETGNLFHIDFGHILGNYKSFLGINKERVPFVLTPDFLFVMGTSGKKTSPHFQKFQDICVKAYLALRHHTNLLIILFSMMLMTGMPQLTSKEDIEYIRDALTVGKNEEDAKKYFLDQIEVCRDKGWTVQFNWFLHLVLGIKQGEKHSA
Chain of MAP kinase-activated protein kinase 2 (P49137 whole entry): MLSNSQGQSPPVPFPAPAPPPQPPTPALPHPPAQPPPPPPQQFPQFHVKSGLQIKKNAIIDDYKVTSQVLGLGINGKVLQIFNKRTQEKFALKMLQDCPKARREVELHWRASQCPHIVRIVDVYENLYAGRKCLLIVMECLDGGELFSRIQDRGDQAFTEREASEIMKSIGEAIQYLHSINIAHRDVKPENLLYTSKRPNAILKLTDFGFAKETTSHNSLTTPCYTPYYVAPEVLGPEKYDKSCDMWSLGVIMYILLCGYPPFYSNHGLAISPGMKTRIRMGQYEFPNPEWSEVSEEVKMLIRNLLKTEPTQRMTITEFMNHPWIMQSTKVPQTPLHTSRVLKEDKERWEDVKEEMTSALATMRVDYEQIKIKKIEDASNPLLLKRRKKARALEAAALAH
Chain of MAP kinase-activated protein kinase 3 (Q16644 whole entry): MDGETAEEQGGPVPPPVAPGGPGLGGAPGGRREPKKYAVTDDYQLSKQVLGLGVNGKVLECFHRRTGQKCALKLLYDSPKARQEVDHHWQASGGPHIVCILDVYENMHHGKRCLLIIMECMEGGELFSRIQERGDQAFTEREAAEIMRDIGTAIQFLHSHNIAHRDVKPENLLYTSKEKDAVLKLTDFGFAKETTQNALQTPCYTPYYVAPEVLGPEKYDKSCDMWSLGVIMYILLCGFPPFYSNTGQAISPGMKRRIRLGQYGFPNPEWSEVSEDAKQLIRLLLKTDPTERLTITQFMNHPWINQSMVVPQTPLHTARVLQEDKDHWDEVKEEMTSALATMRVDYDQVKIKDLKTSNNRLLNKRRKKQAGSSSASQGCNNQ

As a reminder, the IC50 is the midpoint of a concentration-inhibition curve. Lower therefore signals greater potency in that assay. With `Cc1ccc(-c2ccc3c(ccc4sc5c(c43)NC[C@@H](C)NC5=O)n2)cn1`, the IC50 in experiment [1], in [2] and in [3] was 159 nM throughout. `COc1ncc(-c2ccc3nccc(-c4ccnnc4)c3c2)cc1NS(=O)(=O)c1ccc(F)cc1F` [OMIPALISIB] showed a 50% inhibitory concentration (IC50) in experiment [4] of 0.41 nM.

As a reminder, the EC50 is the concentration that produces a half-maximal response. A low value points to a more potent agent. For `COc1cc2c(cc1OCCCN1CCCC1)N=C(N)C21CCC1`, the EC50 in experiment [5] was under 3 µM. With `CCOC(=O)CCNc1cc(N2CCc3ccccc3CC2)nc(-c2ccccn2)n1`, in experiment [6], inhibition was half-maximal at 9 µM (IC50). `C[C@H](NC(=O)c1cnc2n1[C@](C)(Cc1ccc(C#N)cc1)C(=O)N2c1cc(Cl)c(F)c(Cl)c1)C(=O)NC1(c2ccccn2)CC1` [BI 1950] registered a half-inhibitory concentration (IC50) in experiment [7] of 3 nM.

On to `CCOc1cc(N2CCC(O)CC2)ccc1Nc1ncc2c(n1)N(C1CCCC1)CCC(=O)N2C`, for which the IC50 in experiment [8] amounted to 160 nM. As for `CNc1cc(Oc2cc(C(=O)Nc3cc(N4CCN(C)CC4)cc(C(F)(F)F)c3)ccc2C)ncn1`, the EC50 in experiment [9] was 500 nM. As for `CCC(=O)Nc1cccc(Oc2nc(Nc3ccc(N4CCN(C)CC4)cc3OC)ncc2Cl)c1`, the 50% effective concentration (EC50) in [10] and in experiment [11] was over 3 µM throughout. The IC90 is the concentration needed for an effect of 90%. High values mean a need for much substance, low ones an effect from little substance. The compound `CC1=C(C#N)C(c2ccc3[nH]nc(C)c3c2)C(C#N)=C(C)N1` gave an IC90 in experiment [12] of 56 nM.

For the compound `CC(C)(O)CNc1ncc(-c2ccnc(Nc3ccnc(Cl)c3)n2)c(CC2CC2)n1`, in [13], the IC50 was under 100 nM. As to `C[C@@]1(Cc2ccc(C#N)cc2)C(=O)N(c2cc(Cl)cc(Cl)c2)c2ncc(C(=O)NC3(c4nc(C5CCC5)no4)CC3)n21` [BI 9446], in experiment [14], the IC50 was over 1000 nM. For the compound `C[C@H]1CC(=O)Nc2cc(C(=O)NCCC3CC3)ccc2N1C(=O)N1CC2CC2C1` (some centres not stated), the IC50 in [15] came out at 183 nM. As for `CCCc1cc(C)[nH]c(=O)c1CNC(=O)c1cc(-c2ccnc(N3CCN(C)CC3)c2)cc2c1cnn2C(C)C`, the midpoint of inhibition in experiment [16], the IC50, lay at 2900 nM. On to `O=C1NC(c2ccccn2)Sc2ccccc21` (configuration not stated), for which the MEC1.5 in experiment [17] was over 1000 nM.
